In article PMC12097015, “Development of MDM2‐Targeting PROTAC for Advancing Bone Regeneration” (Advanced Science, 2025):
Like-named read-outs stand apart in the source and are kept apart here.

Assays:
[1] = system: p53; assay: p53 level by western blot in hBMSCs; type: cell-based, human; settings: 0.1 µM to 10 µM
Description: Human Bone Marrow‐derived Mesenchymal Stem Cells (hBMSCs) were provided by Professor Lee's laboratory, and cells from passages four to nine were used for all experiments. hBMSCs were cultured in alpha‐minimum essential medium (Welgene, LM008‐01) supplemented with 10% Fetal Bovine Serum (FBS) (Gibco, US origin, 16000–044) and 1% penicillin/streptomycin (Gibco, 15140‐122).
After discarding the medium and washing the cells twice with cold dPBS, the cells were collected using a scraper and lysed using RIPA buffer (GenDEPOT, R4200‐010) containing protease and phosphatase inhibitors (GenDEPOT, P3200‐001). The collected samples were centrifuged at 13 200 rpm for 10 min at 4 °C, and the supernatant containing total protein was collected. SDS‐PAGE gels (10–12%) were prepared, and protein samples were mixed with 5X loading buffer containing reducing agent (Biosesang, S2002) and heated at 98 °C for 5 min. Equal amounts of protein samples were loaded onto a gel, separated by electrophoresis, and transferred onto nitrocellulose membranes using a Dry Transfer Stacks Kit (Invitrogen, IB23001). The membrane was blocked with 5% nonfat milk in 1X TBST for 1 h at room temperature to prevent nonspecific binding. The membranes were incubated with primary antibodies specific to the target proteins overnight at 4 °C with gentle shaking. […]

[2] = system: EGFP‐MDM2; assay: EGFP-MDM2 fluorescence / live imaging degradation assay; type: cell-based
Description: (§1) HeLa cells were cultured in DMEM (Welgene, LM001‐05) supplemented with 10% FBS (Welgene, S001‐07). For transient transfection, the cells were seeded at ≈70% confluence. The following day, transfection was performed using Lipofectamine 3000 (Invitrogen, L3000015) for 24 h according to the manufacturer's protocol. The cells were transfected with 100 ng of EGFP‐MDM2 per well in the 96‐well plate and were transfected with 2 µg of MDM2 WT and 2 µg of HA‐ubiquitin, total 4 µg per well in the 6‐well plate.
To construct the EGFP‐MDM2 plasmid DNA, MDM2 WT was amplified by PCR using specific primers. The PCR products were digested with BamH1 and EcoR1 to generate compatible ends. The plasmid backbone, EGFP‐C1, previously digested with the same enzyme, was ligated into the digested PCR product using T4 ligase (Biolabs, M0202S). The resulting plasmid construct was confirmed using restriction enzyme digestion and DNA sequencing. MDM2 WT (#16233) and HA‐ubiquitin (#18712) were purchased from Addgene (used primer sequences, see Table S2, Supporting Information).
Real‐time Live cell imaging (phase contrast, EGFP fluorescence) was performed to monitor EGFP‐MDM2 intensity at 7 min intervals after compound treatment using Cytation5 (Agilent) laser autofocus conditions to capture EGFP fluorescence to assess intensity. For fluorescence imaging, the cells were fixed using 4% PFA and washed three times with 1X dPBS. Fluorescence imaging was performed using the Cytation5. The intensity of fluorescence was assessed by tracking the fluorescence of individual cells in each image using the Time‐lapse analyzer or ROI measure feature of the Fiji ImageJ software (Version 1.54 h, USA).

[3] = Pharmacokinetic study in BALB/c mice; type: in vivo; settings: mouse, plasma; for MRT last: read-out: MRT0–t; for MRT inf: read-out: MRT0–∞
Description: Pharmacokinetic (PK) studies of CL144 were conducted by Medicilon Preclinical Research (Shanghai) LLC. Six BALB/c mice were divided into two groups, and CL144 was administered by tail vein injection (iv; 1.0 mg kg^−1) or gavage (po; 10 mg kg^−1). Blood samples were collected from the submandibular vein at 0.083, 0.25, 0.5, 1, 4, and 24 h for the iv group and at 0.25, 0.5, 1, 3, 6, and 24 h for the po group. Blood samples were centrifuged at 6800 x g for 6 min at 2–8 °C within 1 h after collection and stored at ≈−80 °C. Plasma samples were analyzed by LC‐MS/MS (TQ6500+), and PK parameters were calculated using the FDA‐certified pharmacokinetic program Phoenix WinNonlin 7.0 (Pharsight, USA).

[4] = biological target: MDM2 (Homo sapiens, UniProt Q00987); assay: Immunoprecipitation of MDM2 ubiquitination in HeLa cells overexpressing MDM2 and HA-tagged ubiquitin; type: cell-based; set-up: host or cells: HeLa; settings: 10 µM, within 60 min
Description: as §1
Hela cells (passage. 5) 7 × 10^5 cells well^−1 were seeded in a 6‐well plate and allowed to adhere overnight (o/n). The next day, WT MDM2 and HA‐ubiquitin plasmid transfection was performed using Lipofectamine 3000 for 24 h, according to the manufacturer's instructions. After transfection for 24 h, cells were treated with CL144 for different time intervals, including 15, 30, and 60 min. After drug treatment, the cells were lysed using immunoprecipitation (IP) lysis buffer (ThermoFisher, 87788) supplemented with a protease inhibitor cocktail (PIC). The cell lysates were harvested for subsequent experiments. The cell lysate was incubated with a HA‐tag primary antibody (1′Ab) at 4 °C overnight to capture the target protein complexes. The next day, the antibody–protein complexes were bound to the beads for 1 h. The beads were washed three times with IP lysis buffer to remove nonspecific binding. […]

Chain of MDM2 (Q00987 whole entry): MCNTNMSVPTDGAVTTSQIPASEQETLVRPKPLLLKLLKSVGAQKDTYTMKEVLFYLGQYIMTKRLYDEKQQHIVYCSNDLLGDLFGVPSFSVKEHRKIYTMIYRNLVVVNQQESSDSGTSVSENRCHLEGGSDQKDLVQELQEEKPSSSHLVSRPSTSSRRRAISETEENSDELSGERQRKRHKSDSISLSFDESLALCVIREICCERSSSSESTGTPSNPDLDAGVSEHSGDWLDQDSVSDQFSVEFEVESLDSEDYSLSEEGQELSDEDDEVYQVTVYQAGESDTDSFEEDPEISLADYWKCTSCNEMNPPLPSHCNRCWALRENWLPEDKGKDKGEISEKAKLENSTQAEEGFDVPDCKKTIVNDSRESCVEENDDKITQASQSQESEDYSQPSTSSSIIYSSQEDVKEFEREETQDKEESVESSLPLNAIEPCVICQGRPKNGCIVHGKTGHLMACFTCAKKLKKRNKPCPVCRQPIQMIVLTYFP

COc1ccc(C2=N[C@H](c3ccc(Cl)cc3)[C@H](c3ccc(Cl)cc3)N2C(=O)N2CCN(CC(=O)NCCCCCCCCOc3cccc4c3C(=O)N(C3CCC(=O)NC3=O)C4=O)C(=O)C2)c(OC(C)C)c1 (stereo in doubt) [CL144]
p53 levels [1]: elevated p53 levels in a dose‐dependent manner
EGFP‐MDM2 maximal degradation efficacy ([2]; 1 µM): 84%
Dmax (EGFP signal intensity) ([2]; EGFP‐MDM2 expressing cells, 1 nM to 50 µM, n = 3): 1 μΜ
DC50 ([2]; EGFP‐MDM2 expressing cells, 1 nM to 50 µM, n = 3, read-out: DC50 (EGFP signal intensity)): 250 nM
concentration at which maximum degradation efficiency was achieved ([2]; live imaging, 0.01 to 10 µM): 10 µM
nuclear EGFP signal ([2]; live imaging, treatment for 4 h): almost completely turned off the nuclear EGFP signal
AUC(0-inf) ([3]; 1.0 mg kg^−1 (iv)): 546 ± 39 ng·h/mL
AUC(0-t) ([3]; 1.0 mg kg^−1 (iv)): 532 ± 35 ng·h/mL
Cmax ([3]; 1.0 mg kg^−1 (iv)): 1630 ± 111 ng/mL
Tmax ([3]; 1.0 mg kg^−1 (iv)): 4.98 min
clearance ([3]; 1.0 mg kg^−1 (iv)): 30.6 ± 2.1 mL/min/kg
half-life ([3]; 1.0 mg kg^−1 (iv)): 70.8 ± 6.6 min
MRT last ([3]; 1.0 mg kg^−1 (iv)): 16.8 ± 1.2 min
MRT inf ([3]; 1.0 mg kg^−1 (iv)): 25.2 ± 3.6 min
Vd ([3]; 1.0 mg kg^−1 (iv), read-out: V ss): 0.774 ± 0.092 L/kg
AUC(0-t) ([3]; 1 mg kg^−1, intravenous administration): 532 ng·h/mL
AUC(0-inf) ([3]; 10 mg kg^−1 (po)): 256 ± 49 ng·h/mL
AUC(0-t) ([3]; 10 mg kg^−1 (po)): 252 ± 44 ng·h/mL
Cmax ([3]; 10 mg kg^−1 (po)): 106 ± 9 ng/mL
Tmax ([3]; 10 mg kg^−1 (po)): 49.8 ± 17.4 min
bioavailability ([3]; 10 mg kg^−1 (po)): 4.74 ± 0.83%
half-life ([3]; 10 mg kg^−1 (po)): 55.8 ± 15.6 min
MRT last ([3]; 10 mg kg^−1 (po)): 94.8 ± 21.6 min
MRT inf ([3]; 10 mg kg^−1 (po)): 100 ± 27.6 min
increase of ubiquitination level of MDM2 [4]: 2.65 fold
